We go through 3 molecules from US11142796B2, “MIR-18B for use as a marker of cancer progression and target for therapies to treat cancer” (SUTTER WEST BAY HOSPITALS, priority 2012, dated 2021).

“Also recorded” adds a separate entry of the source.

One data set deals with miR-18b expression. The data set can be described thus: miR-18b expression by miR qRT-PCR in drug-treated melanoma cells. It is filed as cell-based, human. An excerpt: The DO4, WM3211, 1205-Lu, C8161.9, WM278 and Lox melanoma cell lines were obtained and propagated as described in Dar et al., J Biol Chem 286:16606-14 (2011). Normal human melanocytes (HEM) were purchased from Lifeline cell technology and grown in LL-0027 media (Lifeline cell technology, Walkersville Md.). Plasmids miRNASelect™ pEP-miR Null control vector (pEP Null), miRNASelect™ pEP-hsa-mir-18b expression vector (pEP miR-18b) (Cell Biolabs Inc, San Diego Calif.) were purchased. TaqMan probes for hsa-miR-18b and negative control pre-miR (cont. miR) were purchased from Applied Biosystems (Foster City, Calif.). Sub-confluent cells (60-70% confluent) were treated with 5-AZA-2′-deoxycytidine (5AZA) (Sigma Aldrich, St. Louis Mo.) dissolved in dimethyl-sulfoxide. Cells treated with vehicle served as control. Transient transfections were carried out by Lipofectamine-2000 (Invitrogen Life Technologies, Carlsbad, Calif.) following the manufacturer's protocol.
Mature miRNAs and other mRNAs were assayed using the TaqMan MicroRNA Assays and Gene Expression Assays (Applied Biosystems), respectively, as previously described in Dar et al., J Biol Chem 286:16606-14 (2011).
(Real-time PCR tracks product formation cycle by cycle.)

The next data set relates to chromatin modifications. The data set can be described thus: Chromatin immunoprecipitation analysis after miR-18b overexpression. The class given is cell-based, human. How it is done:
Chromatin immunoprecipitation analysis was performed using the EZ-ChIP kit (Upstate Biotechnology, Charlottesville, Va.) according to the manufacturer's directions and as described in Majid et al., Carcinogenesis 30: 662-70 (2009). Antibodies used in the immunoprecipitations were purchased from Upstate Biotechnology and Ambion (Austin, Tex.) and were specific for acetyl histone H3 (06-599), acetyl histone H4 (06-866), dimethyl-histone H3 lysine 4 (07-030), trimethyl-histone H3 lysine 4(07-473), dimethyl-histone H3 lysine 9 (07-441) and trimethyl-histone H3 lysine 9 (ab8898). The immunoprecipitated DNA was eluted in a total volume of 50 μl and 2 μl were used for PCR.

The test system of another data set is 3′UTR of MDM2. The experiment in a line: Luciferase reporter assay with MDM2-3′UTR. The class given is cell-based, human. An excerpt: The 3′-UTR region of MDM2 containing target site sequences complementary to the seed sequence of miR-18b were cloned downstream of the luciferase gene in the pMIR-REPORT luciferase vector (Ambion, Cambridge Mass.), and the resultant vectors were named MDM2-3′UTR. Mutated 3′UTR sequences of MDM2 complementary to miR-18b were cloned in the same vector and the resultant vectors named MDM2-Mut 3′UTR. For reporter assays, cells were transiently transfected with wild-type or mutant reporter plasmid and miR-18b. Firefly luciferase activities were measured by using the Dual Luciferase Assay (Promega, Madison, Wis.) 48 hr after transfection and the results were normalized with Renilla luciferase. Each reporter plasmid was transfected at least three times (on different days) and each sample was assayed in triplicate.
For orientation: A reporter such as luciferase makes a cellular process visible.

In data set [1] the test system is MDM2 (and the p53 pathway). The experiment in a line: Western blot analysis of MDM2 and p53 pathway proteins. The class given is cell-based, human. How it is done:
(§1) Cell lysates were prepared in PBS containing 1×Halt protease inhibitor cocktail and 1×Halt phosphatase inhibitor cocktail (Pierce, Rockford, Ill.) centrifuged at 3500 r.p.m. for 10 min at 4° C. Proteins (10-15 ug) from each sample were subjected to SDS/polyacrylamide gel electrophoresis (PAGE) and transferred onto a nitrocellulose membrane. Target proteins were detected by using specific antibodies against MDM2, p53, p21, BCL-2 and GAPDH (Santa Cruz Biotechnology, Santa Cruz, Calif.), and PUMA, BCL-XL (Cell Signaling Technology, Danvers, Mass.).

Data set [2] has as its system C8161.9 melanoma cell lines. The experiment in a line: Cell survival, MDM2 and p53 expression in mutant p53 cells. It is filed as cell-based, human. Particulars: C8161.9 cells harboring mutant p53. How it is done:
(§2) Cell viability, colony formation and flow cytometry analysis were performed as described previously in Dar et al., J Biol Chem 286:16606-14 (2011); and Dar et al., J Invest Dermatol 130:2071-9 (2010)).
as §1

The test system of data set [3] is 1205-Lu cells. The experiment in a line: Cell proliferation / viability, 1205-Lu. The class given is cell-based, human. How it is done:
as §2

For data set [4], the system named is 1205-Lu cells. The experiment in a line: Colony formation assay, 1205-Lu. It is filed as cell-based, human. How it is done:
as §2

The test system of data set [5] is 1205-Lu cells. The experiment in a line: Cell cycle analysis (flow cytometry), 1205-Lu. It is filed as cell-based, human. How it is done: as §2
Data set [6] concerns 1205-Lu cells. The data set can be described thus: Apoptosis assay, 1205-Lu. It is filed as cell-based, human. How it is done:
as §2

In data set [7] the test system is LOX human melanoma cells. The experiment in a line: Cell proliferation, LOX. Particulars: LOX cells transfected with miR-18b. It is filed as cell-based. How it is done:
as §2

For data set [8], the system named is LOX human melanoma cells. The experiment in a line: Colony formation, LOX. The class given is cell-based. As to conditions: LOX cells transfected with miR-18b. How it is done: as §2
The test system of data set [9] is LOX human melanoma cells. The experiment in a line: Cell cycle analysis, LOX. The class given is cell-based. Particulars: LOX cells transfected with miR-18b. How it is done:
as §2

The test system of data set [10] is LOX human melanoma cells. The experiment in a line: Apoptosis assay, LOX. The class given is cell-based. Particulars: LOX cells transfected with miR-18b. How it is done: as §2
Data set [11] relates to 1205-Lu cells. The data set can be described thus: Subcutaneous tumor growth of 1205-Lu cells stably expressing miR-18b. It is filed as in vivo, nude mice. How it is done:
1205-Lu cells were transfected with pEP Null or pEP miR-18b vectors (Cellbiolabs, San Diego Calif.) and selected with puromycin (1 μg/mL). For in-vivo studies as described previously in Dar et al., J Invest Dermatol 130:2071-9 (2010), 1×10^6 cells were injected into nude mice subcutaneously and tumor growth was followed for 24 days. All animal care was in accordance with the institutional guidelines.

In data set [12] the test system is 1205-Lu melanoma cells. The experiment in a line: Migration assay (boyden chamber). The class given is cell-based, human. Particulars: miR-18b over-expression; vs cont.miR. How it is done: (§3) For 1205-Lu cells boyden chamber inserts were coated with 15 μl matrigel at 6 mg/ml protein. For migration assay boyden chamber inserts were not coated and cells were directly added to them.

The test system of data set [13] is 1205-Lu melanoma cells. The experiment in a line: Invasion assay (matrigel-coated boyden chamber). The class given is cell-based, human. As to conditions: miR-18b over-expression; vs cont.miR. How it is done:
as §3

Data set [14] concerns E-cadherin, vimentin, N-cadherin and slug. The data set can be described thus: EMT markers by immunofluorescence and Western blot. As to conditions: miR-18b overexpression in 1205-Lu. It is filed as cell-based, human. How it is done:
as §1
1205-Lu cells were plated in 8-well plate chamber. Immunofluorescence assay was performed as previously described in Dar et al., Oncogene 28: 866-75 (2009). N-cadherin, vimentin, slug and E-cadherin antibodies (Cell signaling) were used in the assay.
(In general: In western blotting, separated proteins are transferred to a membrane and probed.)

Where [15] appears, read: 1205-Lu co-transfection with empty vector or MDM2-expressing vector.
The mark [16] stands for this setting: 1205-Lu stably overexpressing miR-18b.
Where [17] appears, read: transient miR-18b overexpression.
Setting [18] is: stable expression of miR-18b, vs control vector.
Where [19] appears, read: transient transfection, vs cont.miR.

`Nc1ncn([C@H]2C[C@H](O)[C@@H](CO)O2)c(=O)n1` [5AZA, 5-AZA-2′-deoxycytidine]: the miR-18b expression entry with miR-18b expression (five melanoma cell lines (C8161.9, LOX, 1205-Lu, DO4, WM278), 5AZA 5 μM, vs vehicle) is recorded as “significant upregulation”.
Take `N.N.[Cl][Pt][Cl]` [cisplatin]: the miR-18b expression entry in the data set on miR-18b expression (1205-Lu cells, 2 nM cisplatin for 48 hr, vs vehicle-treated cells) is recorded as “significantly upregulated”; with miR-18b expression (1205-Lu cells, 2 nM cisplatin for 48 hr, vs vehicle-treated cells, listed as Cisplatin), “induced expression of miR-18b”.
As to “miR-18b: microRNA, mature miR-18b-5p UAAGGUGCAUCUAGUGCAGUUAG (SEQ ID NO:1); transfected or stably expressed from pEP-hsa-mir-18b expression vector (listed as Homo sapiens)”, in the data set with chromatin modifications, the “active chromatin modifications (acetylated histones H3, H4 and H3 di-methylated lysine 4)” value is on record as “enrichment”; the “repressive chromatin modifications (2H3K9 and 3H3K9)” value was “suppression”. Further, in the data set with 3′UTR of MDM2 (MDM2-Mut 3′UTR, 1205-Lu and LOX cells), the “reporter activity, mutant 3′UTR” value was “no effect”. The “reporter expression, MDM2-3′UTR construct” value in the data set on 3′UTR of MDM2 (transient co-transfection into 1205-Lu and LOX cells, 48 hr, vs control vector) is “significant decrease”. Further, the “gene expression (MDM2, p53 pathway)” value in data set [1] (setting [15]) is listed as “suppression of MDM2, activation of the p53 pathway”. Also, in [1] (setting [16]), the MDM2 expression entry is given as “significantly downregulated”; the “expression of p53 and PUMA” value is reported as “concomitant increase”. In addition, the p14ARF expression entry in data set [1] (following miR-18b overexpression) was “unchanged”. Also, in data set [1] (setting [17]), the “MDM2 at the protein level” value is on record as “significantly suppressed”; the “anti-apoptotic genes BCL2 and BCL-XL” value was “downregulation”; the “pro-apoptotic genes p53 and PUMA” value was “concomitant upregulation”. Moreover, the “cell survival, MDM2 and p53 expression levels” value in data set [2] was “no effect”. The melanoma cell survival result in the data set with 1205-Lu cells [3] (setting [15]) is recorded as “suppressed melanoma cell survival”. Besides, the “cell proliferation with BRAF inhibitor” value in the data set on 1205-Lu cells [3] (1205-Lu transfected with miR-18b vs Neg-miR, treated with dabrafenib, 48 hrs) is given as “sensitized melanoma cell lines to BRAF specific inhibitor; also recorded: additive effect”. The “sensitivity to cisplatin cytotoxicity” value in the data set on 1205-Lu cells [3] (melanoma cells treated with miR-18b) is recorded as “enhanced sensitivity”. Besides, the cell proliferation entry in the data set on 1205-Lu cells [3] (setting [18]) is “significantly suppressed”. The “cell proliferation over time” value in the data set with 1205-Lu cells [3] (setting [19]) is reported as “significantly decreased”. The colony formation result in the data set on 1205-Lu cells [4] (setting [18]) is recorded as “significant decreases”. For the same molecule, the colony formation ability result with 1205-Lu cells [4] (setting [19]) is given as “low colony formation ability”. Moreover, the “cells in S-phase” value with 1205-Lu cells [5] (setting [18]) is given as “significant decreases”. The “cells in S-phase” value in the data set on 1205-Lu cells [5] (transient overexpression, cont.miR 15.5%, p<0.02) is listed as 8.05%. In addition, the apoptotic index result in the data set on 1205-Lu cells [6] (stable expression of miR-18b) is “significant increase”. Also, the apoptosis in the data set with 1205-Lu cells [6] (transient overexpression, cont.miR 2.87%, p<0.01) was 11.30%. In the data set with LOX human melanoma cells [7], the cell proliferation entry was “significant decrease”. In the data set with LOX human melanoma cells [8], the colony formation entry is reported as “significant decrease”. The S-phase result in the data set on LOX human melanoma cells [9] is recorded as “significant decrease”. The apoptosis entry with LOX human melanoma cells [10] is given as “increase”. Moreover, the “tumor growth in vivo” value in the data set with 1205-Lu cells [11] (subcutaneous inoculation into nude mice, followed for 24 days, vs control vector cells) was “significantly suppressed”. In addition, the “MDM2 at the protein level in tumors” value with 1205-Lu cells [11] (subcutaneous tumors, vs control tumors) was “suppressed”. Also, the migratory ability result in the data set on 1205-Lu melanoma cells [12] is reported as “significantly suppressed”. In the data set on 1205-Lu melanoma cells [13], the invasiveness result is “significantly suppressed”. Also, in [14], the “epithelial biomarker E-cadherin” value was “significant upregulation”; the “mesenchymal markers vimentin, N-cadherin and slug” value is “reduced”.
